Converted amounts (≈) assume the structure as drawn.
Tests used:
[1] = test system: patients with mild to moderate hypertension; test: Population PK/PD analysis (Emax model) of nebivolol plasma concentration versus mean sitting DBP; assay type: in vivo, human
Protocol: The study involved first determining the relationship between nebivolol plasma concentration and the therapeutic diastolic blood pressure (DBP)-reducing effect by nebivolol when administered alone. A population PK/PD analysis was performed to assess the relationship between nebivolol plasma concentration and its therapeutic DBP-reducing effect. The analysis utilized PK/PD data that was collected from patients with mild to moderate hypertension following a Phase 3, double-blind, placebo-controlled, multicenter study. During the study, patients were randomized to 7 parallel treatment arms wherein the patient received either a placebo or any of 6 different doses of nebivolol (between 1.25 and 40 mg). The patients were also stratified across all treatment arms by covariates of race (African American vs non-African American), age (<65 vs≧65 years), gender, diabetes status (history of diabetes mellitus vs no history of diabetes mellitus), and by metabolism of nebivolol (PM vs EM of CYP 2D6). Blood pressure data was collected from each patient initially and at days 28 and 84 of treatment. The study results were refined and updated using nonlinear mixed-effects modeling (NONMEM) software, version VII, with first-order conditional estimation/interaction method. […] Moreover, the EC50 (half maximal effective concentration) was determined.

[2] = Crossover trial of nebivolol exposure, alone versus in free combination with valsartan, once daily for 7 days; assay type: in vivo, human
Protocol: […], 3-way crossover trial was performed in healthy subjects to assess the pharmacokinetic (pK) and pharmacodynamic (pD) impact of administered valsartan on nebivolol.
28 subjects aged 19-45 were randomized to the following once-daily treatments for 7 days under fasted conditions: (A) nebivolol alone (20 mg tablet) and (B) concomitant nebivolol 20 mg+valsartan 320 mg in free combination. Blood samples were collected from each subject for pK analysis at the following time points: 0 hour (predose) on Days 1, 14, and 27 and at 0 hour (predose) and 1, 2, 4, 6, 10, 16, 24, 36, and 48 hours postdose on Days 7, 20, and 33.
The bioanalytical procedure used to measure plasma concentrations of nebivolol was a LC/MS/MS (liquid chromatography/tandem mass spectrometry) method.
Among the pK parameters measured were AUC0-τ,ss (area under the plasma concentration versus time curve from time 0 to the dosing interval, τ, at steady state); Cdmax,ss (maximum plasma drug concentration at steady state); Tmax,ss (time of maximum plasma drug concentration following drug administration at steady state); Cmin,ss minimum plasma drug concentration at steady state); Cav,ss (average plasma drug concentration at steady state); and CL/F (apparent total clearance from plasma after oral administration). These pK parameters were derived from plasma concentrations using noncompartmental analysis with the software program SAS (version 9.1.3). In addition, the 2-sided 90% confidence interval (CI) for the ratio of geometric means of Cmax and AUC0-τ,ss between nebivolol coadministered with valsartan and nebivolol alone were constructed.

[3] = coadministered with valsartan versus nebivolol alone

Structure (SMILES): OC(CNCC(O)C1CCc2cc(F)ccc2O1)C1CCc2cc(F)ccc2O1 (centres unmarked) [nebivolol]
- EC50 ([1]; Homo sapiens, Emax model, mean sitting DBP, Phase 3 data, nebivolol 1.25-40 mg, read-out: EC50 estimate of d,l-nebivolol concentrations (DBP PK/PD model)): 0.0179 ng/mL (≈ 0.0441 nM)
- Emax in DBP reduction ([1]; after correction for the placebo effect): approximately 5 mm Hg
- decrease in mean nebivolol AUC0-τ [2, 3]: 15-20%
- decrease in mean nebivolol Cmax [2, 3]: 40-50%
- AUC ([2]; human, plasma, oral, 20 mg nebivolol once daily for 7 days, alone or with 320 mg valsartan, healthy subjects, fasted, steady state, read-out: nebivolol AUC0-τ, Arithmetic Mean): 0.0415 µg·h/mL
- Cmax ([2]; human, plasma, oral, 20 mg nebivolol once daily for 7 days, alone or with 320 mg valsartan, healthy subjects, fasted, steady state, read-out: nebivolol Cmax, Arithmetic Mean): 8.02 ng/mL
- Cmax and CSS,max reduction ([2]; in the presence of valsartan): approximately 50%
- mean reduction in nebivolol Cavg and CSS,avg ([2]; in the presence of valsartan): ~20%

Source: patent US20140057954A1, “CHEMICAL COMPOSITION” (FOREST LABORATORIES HOLDINGS LTD., priority 2012, published 2014)
